Experimental data reported in the NIST ThermoML archive (doi:10.1021/je060271a).
Values joined by “and” are separate entries in the source; they are usually repeats but may differ in a detail not shown here. Equal entries are not always repeated.

Conditions: 283.16 K, Liquid, Vibrating tube method

CCCCCC(=O)OCC(COC(=O)CCCCC)(COC(=O)CCCCC)COC(=O)CCCCC [pentaerythritol tetrahexanoate]
Conditions | mass density
94 kPa | 1004.3 kg/m3
94.1 kPa | 1004.2 kg/m3 and 1004.1 kg/m3
94.2 kPa | 1004.2 kg/m3
94.3 kPa | 1004.2 kg/m3
94.5 kPa | 1004.2 kg/m3 and 1004.1 kg/m3
94.7 kPa | 1004.1 kg/m3
94.8 kPa | 1004.2 kg/m3
95 kPa | 1004.1 kg/m3 and 1004.2 kg/m3
95.2 kPa | 1004.1 kg/m3 and 1004.3 kg/m3
95.4 kPa | 1004.2 kg/m3 and 1004.1 kg/m3
95.5 kPa | 1004.2 kg/m3 and 1004.1 kg/m3
95.9 kPa | 1004.2 kg/m3
96.1 kPa | 1004.2 kg/m3
96.9 kPa | 1004.1 kg/m3
97.1 kPa | 1004.3 kg/m3
97.4 kPa | 1004.3 kg/m3
97.8 kPa | 1004.1 kg/m3
98.1 kPa | 1004.2 kg/m3
98.3 kPa | 1004.4 kg/m3
98.5 kPa | 1004.1 kg/m3
98.6 kPa | 1004.2 kg/m3
99 kPa | 1004.2 kg/m3
99.3 kPa | 1004.2 kg/m3
99.5 kPa | 1004.2 kg/m3
99.7 kPa | 1004.2 kg/m3 and 1004.1 kg/m3
100 kPa | 1004.1 kg/m3 and 1004.2 kg/m3
100.2 kPa | 1004.2 kg/m3 and 1004.3 kg/m3
100.4 kPa | 1004.2 kg/m3
100.5 kPa | 1004.2 kg/m3
100.7 kPa | 1004.1 kg/m3
101 kPa | 1004.2 kg/m3 and 1004.1 kg/m3
101.1 kPa | 1004.2 kg/m3
101.2 kPa | 1004.3 kg/m3 and 1004.1 kg/m3
101.4 kPa | 1004.3 kg/m3 and 1004.1 kg/m3
101.7 kPa | 1004.2 kg/m3
102.2 kPa | 1004.1 kg/m3
102.4 kPa | 1004.2 kg/m3
102.6 kPa | 1004.2 kg/m3 and 1004.1 kg/m3
102.8 kPa | 1004.3 kg/m3
103.1 kPa | 1004.1 kg/m3 and 1004.2 kg/m3
103.3 kPa | 1004.2 kg/m3
103.4 kPa | 1004.1 kg/m3
103.6 kPa | 1004.1 kg/m3
104 kPa | 1004.1 kg/m3 and 1004.3 kg/m3
104.1 kPa | 1004.1 kg/m3
104.3 kPa | 1004.2 kg/m3
104.5 kPa | 1004.1 kg/m3 and 1004.2 kg/m3
105 kPa | 1004.2 kg/m3
105.2 kPa | 1004.1 kg/m3
105.3 kPa | 1004.2 kg/m3
105.5 kPa | 1004.1 kg/m3
105.8 kPa | 1004.2 kg/m3 and 1004.3 kg/m3
106 kPa | 1004.1 kg/m3
106.2 kPa | 1004.2 kg/m3
106.3 kPa | 1004.2 kg/m3
106.4 kPa | 1004.1 kg/m3
106.5 kPa | 1004.2 kg/m3
106.7 kPa | 1004.3 kg/m3
106.9 kPa | 1004.2 kg/m3
107 kPa | 1004.2 kg/m3 and 1004.1 kg/m3
107.2 kPa | 1004.1 kg/m3
107.9 kPa | 1004.2 kg/m3 and 1004.3 kg/m3
108.2 kPa | 1004.2 kg/m3
108.6 kPa | 1004.2 kg/m3
108.7 kPa | 1004.1 kg/m3 and 1004.2 kg/m3
108.9 kPa | 1004.2 kg/m3
109.4 kPa | 1004.2 kg/m3
109.6 kPa | 1004.2 kg/m3
109.8 kPa | 1004.1 kg/m3
109.9 kPa | 1004.2 kg/m3
110.1 kPa | 1004.2 kg/m3
110.3 kPa | 1004.2 kg/m3
110.5 kPa | 1004.1 kg/m3
110.6 kPa | 1004.4 kg/m3 and 1004.2 kg/m3
110.8 kPa | 1004.2 kg/m3
111 kPa | 1004.1 kg/m3
111.1 kPa | 1004.2 kg/m3
111.3 kPa | 1004.2 kg/m3
119.9 kPa | 1004.1 kg/m3
120.5 kPa | 1004.2 kg/m3
120.6 kPa | 1004.1 kg/m3
120.8 kPa | 1004.2 kg/m3
121 kPa | 1004.2 kg/m3 and 1004.1 kg/m3
121.1 kPa | 1004.3 kg/m3
126.7 kPa | 1004.3 kg/m3
126.9 kPa | 1004.4 kg/m3 and 1004.2 kg/m3
127 kPa | 1004.2 kg/m3
127.4 kPa | 1004.3 kg/m3
127.5 kPa | 1004.1 kg/m3
127.7 kPa | 1004.1 kg/m3
128.4 kPa | 1004.2 kg/m3
128.6 kPa | 1004.3 kg/m3
128.8 kPa | 1004.2 kg/m3
129.1 kPa | 1004.2 kg/m3
129.8 kPa | 1004.2 kg/m3 and 1004.1 kg/m3 and 1004.3 kg/m3
130.3 kPa | 1004.2 kg/m3
130.8 kPa | 1004.2 kg/m3 and 1004.1 kg/m3
131.2 kPa | 1004.3 kg/m3
131.5 kPa | 1004.2 kg/m3
131.9 kPa | 1004.2 kg/m3
132 kPa | 1004.3 kg/m3
132.2 kPa | 1004.3 kg/m3
132.4 kPa | 1004.1 kg/m3
132.6 kPa | 1004.2 kg/m3
132.7 kPa | 1004 kg/m3
133.1 kPa | 1004.2 kg/m3
133.4 kPa | 1004.2 kg/m3
133.8 kPa | 1004.2 kg/m3
145.2 kPa | 1004.2 kg/m3
145.6 kPa | 1004.2 kg/m3
146.1 kPa | 1004.2 kg/m3
147 kPa | 1004.2 kg/m3
148.7 kPa | 1004.2 kg/m3
149.2 kPa | 1004.2 kg/m3
149.4 kPa | 1004.2 kg/m3
149.8 kPa | 1004.4 kg/m3
150.1 kPa | 1004.3 kg/m3 and 1004.2 kg/m3
158.8 kPa | 1004.2 kg/m3
159 kPa | 1004.1 kg/m3
159.1 kPa | 1004.2 kg/m3
159.7 kPa | 1004.3 kg/m3
159.8 kPa | 1004.2 kg/m3
160.2 kPa | 1004.3 kg/m3
168.7 kPa | 1004.2 kg/m3
168.9 kPa | 1004.2 kg/m3
169.4 kPa | 1004.2 kg/m3
170.2 kPa | 1004.2 kg/m3
170.6 kPa | 1004.2 kg/m3
171.1 kPa | 1004 kg/m3
171.5 kPa | 1004.2 kg/m3
171.8 kPa | 1004.1 kg/m3
172.3 kPa | 1004.3 kg/m3
172.5 kPa | 1004.3 kg/m3
175.8 kPa | 1004.2 kg/m3
176.7 kPa | 1004.2 kg/m3
177 kPa | 1004.3 kg/m3
177.7 kPa | 1004.2 kg/m3
216.6 kPa | 1004.2 kg/m3
218.2 kPa | 1004.4 kg/m3
218.5 kPa | 1004.3 kg/m3
224.6 kPa | 1004.3 kg/m3
224.9 kPa | 1004.3 kg/m3
225.8 kPa | 1004.2 kg/m3
226.1 kPa | 1004.3 kg/m3
226.8 kPa | 1004.3 kg/m3
